Reference: patent US20050203191A1, “1-Aminocyclohexane derivatives for the treatment of agitation and other behavioral disorders, especially those associated with alzheimer's disease” (priority 2004, published 2005)

System: patients with mild to moderate dementia of the Alzheimer's type on stable chronic doses of a cholinesterase inhibitor
Assay: MD-12: randomized, double-blind, placebo-controlled evaluation of memantine added to stable cholinesterase inhibitor
Format: in vivo, human
Conditions: MD-12, on cholinesterase inhibitor, week 24, ITT LOCF
Experimental: The primary endpoints for MD-12 were ADAS-cog and CIBIC-plus. Other endpoints for MD-12 included ADCS-ADL23, NPI, MMSE and RUD (Resource Utilization in Dementia).
The five memantine trials were evaluated using an analysis of patient for a population having an NPI agitation subscale score of >4 ([…]) and for a population having an NPI score of <4 ([…]). For each NPI population, changes in SIB, ADAS-cog and/or ADL were calculated using the least square (LS) mean difference for memantine and placebo-treated patients. Similarly, for each NPI population, the raw mean difference between memantine and placebo was calculated for the CIBIC-plus results.
For primary efficacy measurements the comparison between memantine and placebo was performed using two-way analysis of covariance (ANCOVA) with treatment group and center as the two factors, and the baseline scores as covariate. Both the LOCF imputation approach and the OC approach are performed at the end of the trials.
For secondary efficacy measurements, the comparison between memantine and placebo was performed using two-way analysis of covariance (ANCOVA) with treatment group and center as the two main effects, and the baseline scores as covariate. Descriptive statistics were calculated by Visit. Again, all analyses were performed using both the LOCF imputation approach and the OC approach.
Results of ANCOVA were summarized using least square (LS) means for each treatment group with corresponding standard error (SE), the between-treatment (2-24 week) difference in the least square means with corresponding 95% confidence interval, and the between-treatment p-value corresponds to the SAS Type III sum of squares.
In data Tables 5-19, the Overall Memantine versus Placebo columns of studies MD-01, MD-02, MD-10 and MD-12 used an ANCOVA model with baseline total score as covariate, treatment and study center as factors for SIB, ADL or ADAS-cog; CMH test controlling for study center for CIBIC-Plus. For MZ-9605, results are based on arithmetic means and the Wilcoxon-Mann-Whitney test. The Agitation score columns/NPI/antipsychotics columns, except CIBIS-Plus, calculated the p-values and LS mean differences within the subgroups from an ANCOVA model with baseline total score as covariate, subgroup (yes/no), treatment, and treatment by subgroup interactions as factors. For CIBIS-Plus, the p-values and raw mean differences within a subgroup were calculated using the CMH test controlling for study center.
Patients in the same five trials described above were stratified into two sub-groups in a second analysis, those with an NPI total score in the top quartile (≧75%), or those more severely impaired at baseline, and those with an NPI total score <75%, or less severe impairment at baseline. Similar to as in Example 1, results were evaluated using the change in SIB (cognitive endpoint), and change in ADCS-ADL (functional endpoint), using the LS mean. The change in the CIBIC-plus (global endpoint) was assessed using the raw mean.
A sub-population of patients from the five trials, MD-01, MD-02, MD-10, MD-12, and MZ-9605, were concurrently taking antipsychotics.

[1] = NPI total score ≧=75% (top quartile)
[2] = antipsychotics usage “YES” (N = n)
[3] = antipsychotics usage “YES” (N = y)
[4] = baseline NPI agitation score <4
[5] = baseline NPI agitation score ≧=4

Structure (SMILES): CC12CC3CC(C)(C1)CC(N)(C3)C2 [memantine, 1-amino-3,5-dimethyl adamantane]
- ADAS-COG (change) LS Mean Diff., MEM v. PLA (second parameter of Table 18): −0.24
- ADAS-cog (change) LS Mean Diff., MEM v. PLA (NPI total score <75%): −0.39
- ADAS-cog (change) mean (NPI total score <75%): 0.53
- ADCS-ADL (change) LS Mean Diff., MEM v. PLA (NPI total score <75%): −0.76
- ADCS-ADL (change) mean (NPI total score <75%): −3.0
- CIBIC-PLUS Raw Mean Diff., MEM v. PLA (NPI total score <75%): −0.041
- CIBIC-PLUS mean (NPI total score <75%): 4.3
- CIBIC-PLUS Raw Mean Diff., MEM v. PLA (NPI total score <75%, listed as MEM): −0.1
- ADAS-cog (change) LS Mean Diff., MEM v. PLA [1]: −1.53
- ADAS-cog (change) mean [1]: 0.05
- ADCS-ADL (change) LS Mean Diff., MEM v. PLA [1]: 2.0
- ADCS-ADL (change) mean [1]: −2.8
- CIBIC-PLUS Raw Mean Diff., MEM v. PLA [1]: 0.0
- CIBIC-PLUS mean [1]: 4.6
- ADCS-ADL (change) LS Mean Diff., MEM v. PLA (NPI total score ≧=75% (top quartile), listed as MEM): 2.00
- ADAS-COG (change) mean (second parameter of Table 18) [2]: −2.5
- ADAS-cog (change) LS Mean Diff., MEM v. PLA [2]: −0.74
- ADAS-cog (change) mean [2]: 0.1
- CIBIC-PLUS Raw Mean Diff., MEM v. PLA [2]: −0.06
- CIBIC-PLUS mean [2]: 4.33
- ADAS-COG (change) LS Mean Diff., MEM v. PLA (second parameter of Table 18) [3]: .43
- ADAS-COG (change) mean (second parameter of Table 18) [3]: −6.0
- ADAS-cog (change) LS Mean Diff., MEM v. PLA [3]: .4
- ADAS-cog (change) mean [3]: 3.2
- CIBIC-PLUS Raw Mean Diff., MEM v. PLA [3]: 0.1
- CIBIC-PLUS mean [3]: 4.74
- ADAS-cog (change) LS Mean Diff., MEM v. PLA [4]: −0.72
- ADAS-cog (change) mean [4]: 0.35
- ADCS-ADL (change) LS Mean Diff., MEM v. PLA [4]: −0.56
- ADCS-ADL (change) mean [4]: −2.8
- CIBIC-PLUS Raw Mean Diff., MEM v. PLA [4]: −0.1
- CIBIC-PLUS mean [4]: 4.3
- ADAS-cog (change) LS Mean Diff., MEM v. PLA [5]: −0.27
- ADAS-cog (change) mean [5]: 0.98
- ADCS-ADL (change) LS Mean Diff., MEM v. PLA [5]: 3.54
- ADCS-ADL (change) mean [5]: −3.7
- CIBIC-PLUS Raw Mean Diff., MEM v. PLA [5]: no difference
- CIBIC-PLUS mean [5]: 4.7
- CIBIC-PLUS Raw Mean Diff., MEM v. PLA (baseline NPI agitation score ≧=4, listed as MEM): 0.0
- ADAS-cog (change) LS Mean Diff., MEM v. PLA (overall): −0.70
- ADAS-cog (change) LS mean (overall): 0.10
- ADCS-ADL (change) LS Mean Diff., MEM v. PLA (overall): −0.20
- ADCS-ADL (change) LS mean (overall): −3.00
- CIBIC-PLUS LS mean (overall): 4.38
- CIBIC-PLUS Raw Mean Diff., MEM v. PLA (overall): −0.04
